# Values joined by “and” are separate entries in the source; they are usually repeats but may differ in a detail not shown here. Equal entries are not always repeated. Structures can show the parent of a compound that is named as a salt. Where two headings read alike, the source gives them in different places. Marks after values point to notes of the source that are not given here.
# How the values were obtained:
# P. falciparum = test: Antimalarial activity against P. falciparum in vitro (Desjardins [3H]hypoxanthine incorporation); format: cell-based
# Description: FIG. 1, the anti-malarial action of a precursor of thiazolium (designated by TE4c in the examples), and corresponding thiazolium (T4) as a function of the concentration of drug, according to the Desjardins test, (Desjardins R. E. et al, Antimicrob. Agents Chemother. 1979, 16, 710-718),
# The IC50 measurements are determined vis-à-vis P. falciparum according to the Desjardins method in which the incorporation of [^3H] hypoxanthine (FIG. 1) into the nucleic acids is an indicator of cell viability. In each case, optical microscopy controls are carried out.
# (§1) The IC50 is the concentration which inhibits by 50% the in vitro growth of P. falciparum: the LD50 is the lethal dose corresponding to the death of 50% of the mice and the ED50 is the effective dose for inhibiting by 50% the in vivo growth of P. vinckei according to a 4-day suppressive test, TI corresponds to the therapeutic index, TI=LD50 (semi-chronic)/ED50; ip: intraperitoneal administration; po: per os.
# [1] = Tolerance in the mouse: LD50 after acute or semi-chronic administration; format: in vivo; conditions: for Oral absorption index (LD50 po/LD50 ip ratio, acute): acute administration; for LD50 / LD50 at 4 days: in vivo; for LD50 / In vivo LD50 (mg/kg) (mouse) acute: single dose; for LD50 at 4 days / In vivo LD50 (mg/kg) (mouse) semi-chronic: twice per day for 4 consecutive days
# From the text: (§2) B) Antimalarial Activity in vivo Against a Mouse Infected by P. vinckei and Tolerance After Administration in Acute or Semi-chronic Conditions.
# as §1
# P. vinckei = test: animal or person; format: in vivo; conditions: mouse, 4-day suppressive test, TE4c in 50/50 PEG/castor oil; for ED50: Plasmodium vinckei, 96 h, read-out: In vivo ED50 (mg/kg) (P. vinckei)
# From the text: as §2, §1
# [2] = Pharmacokinetics / serum level in the mouse (ex vivo bio-test on P. falciparum)
# Description: The results of the pharmacokinetic parameters after administration by intraperitoneal or oral route in a mouse for a prodrug of disulphice type (TS3b) and a prodrug of thioester type (TE4c) are presented hereafter.
# (§3) For determination of the serum level, bio-tests are used ex vivo: briefly, the medicament is administered to the animal, then repeated blood samples are taken. The sera are decomplemented for 30 minutes at 56° C. The active metabolite content is then determined by incubation of different concentrations (dichotomic dilution) of each serum, in the presence of suspensions of erythrocytes infected by P. falciparum, according to the DESJARDINS method with [^3H] hypoxanthine.
# The results are expressed in IS50, which corresponds to the percentage of serum (containing an active metabolite) capable of inhibiting the growth of P. falciparum by 50%.
# This value is then converted into a serum concentration, (usually expressed in ng/ml) by testing the active compound directly (without passing through the animal), on the same suspension infected by P. falciparum and by determining its IC50 value (in ng/ml) [serum level=IC50] (in ng/ml)×100/IS50 (in %)].
# (§4) The results are expressed as the log (serum level of medicaments), as a function of time, which allows the evaluation of the half-time for distribution to the serum compartment t1/2(d); the half-time for elimination of the serum compartment (t1/2(e)); of C0), corresponding to the serum level originally extrapolated during the elimination phase; the AUC (which indicates the quantity of drug circulating in the blood stream); and the relative bio-availability in the oral route administration method, as against the intraperitoneal route method [AUC (po)/AUC (ip)] which is an indicator of the degree of absorption by oral route.
# [3] = tested on: P. falciparum (FVO strain); test: Antimalarial activity against Plasmodium falciparum in the Aotus monkey; format: in vivo; conditions: Aotus monkeys
# Description: 3 Aotus monkeys were infected with P. falciparum (FVO strain). When the blood parasitemia reached 1% (2 monkeys) or 6% (1 monkey), treatment by intramuscular route at a rate of 2 injections per day of TE4c (2mg/kg), for 8 days, was carried out.
# [4] = Pharmacokinetics in the monkey (ex vivo bio-test serum level); conditions: Macaca fascicularis, intramuscular 4 mg/kg
# Description: as §3
# The results are expressed in IS50, which corresponds to the percentage of serum (containing an active metabolite) capable of inhibiting the growth of P. falciparum by 50%. […]
# as §4, with “route. […]” for “route.”
# Babesia divergens = test: Antibabesiasis activity in vitro against Babesia divergens; format: cell-based
# Description: (§5) The products TE4c, TS3b and P1 were also evaluated in vitro for their activities against Babesia divergens and B. canis.
# B. canis = test: Antibabesiasis activity in vitro against B. canis; format: cell-based
# Description: as §5
# [5] = in vitro growth of P. falciparum, [3H]hypoxanthine incorporation, 48 hours test, read-out: IC50
# [6] = ip, TE4c value corresponds to death of only 25% of the mice, read-out: In vivo LD50 (mg/kg) (mouse) semi-chronic
# [7] = po, read-out: In vivo LD50 (mg/kg) (mouse) semi-chronic
# [8] = ip, TE4c value corresponds to death of only 25% of the mice
# [9] = 3 mg/kg ip and 50 mg/kg po, both routes
# [10] = ip 3 mg/kg TE4c, active metabolite considered to be T4
# [11] = oral 50 mg/kg TE4c, active metabolite considered to be T4
# [12] = oral route, higher dose series (150 mg/kg po)
compound,measurement,setting,value
"1,12-decamethylene bis[4-methyl-5-(2-methoxyethyl)thiazolium] diiodide [T4]",IC50,P. falciparum; [5],0.65 nM
"1,16-hexadecamethylenebis[4-methyl-5-(2-methoxyethyl)thiazolium] diiodide [T8]",IC50,P. falciparum; [5],1.1 nM
"2,15-(N,N′-diformyl-N,N′-dibenzyl)diamino-1,16-S-thiobenzoyl-hexadeca-1,15-diene [TE16]",IC50,P. falciparum; [5],12 nM
"C[N+]1(CCCCCCCCCCCCCCCC[N+]2(C)CCCC2)CCCC1 [G25, 1,16-hexadecamethylene bis-(N-methylpyrrolidinium), reference compound]",IC50,P. falciparum; Plasmodium falciparum,0.6 nM
same,"Oral absorption index (LD50 po/LD50 ip ratio, acute)",[1],87
same,LD50,[1]; ip,1.27 mg/kg
same,LD50 at 4 days,[1]; [6],1.15 mg/kg
same,LD50,[1]; po,130 mg/kg
same,LD50 at 4 days,[1]; [7],65 mg/kg
same,ED50,P. vinckei; ip,0.22 mg/kg
same,ED50,P. vinckei; po,~15 mg/kg
"CC(Cl)CCCN(C)CCCCCCCCCCCCCCCCN(C)CCCC(C)Cl (stereo not shown) [P2, N,N′-dimethyl-N,N′-(4-chloropentyl)-1,16-hexadecanediamine hydrochloride]",IC50,P. falciparum; [5],0.5 nM
"Cc1c(CCO)sc[n+]1CCCCCCCCCCCC[n+]1csc(CCO)c1C.[Br-].[Br-] [T3, 1,12-dodecamethylene bis [4-methyl-5-(2-hydroxyethyl)thiazolium] dibromide]",IC50,P. falciparum; [5],2.25 nM
same,"Oral absorption index (LD50 po/LD50 ip ratio, acute)",[1],70
same,In vivo LD50 (mg/kg) (mouse) acute,[1]; ip,10 mg/kg
same,In vivo LD50 (mg/kg) (mouse) semi-chronic,[1]; [8],7.5 mg/kg
same,In vivo LD50 (mg/kg) (mouse) acute,[1]; po,700 mg/kg
same,In vivo LD50 (mg/kg) (mouse) semi-chronic,[1]; po,160 mg/kg
"Cc1csc[n+]1CCCCCCCCCCCC[n+]1cscc1C [T6, 1,12-dodecamethylenebis(4-methylthiazolium) diiodide]",IC50,P. falciparum; [5],3 nM
"Cc1c(CCOCCCCCCOCCc2sc[n+](Cc3ccccc3)c2C)sc[n+]1Cc1ccccc1 [T10, 3,10-dioxadodecamethylenebis[5-(1-benzyl, 4-methyl)-thiazolium] dibromide]",IC50,P. falciparum; [5],2.5 nM
"CCOC(=O)CCc1c(CCCCCCCCCCCCc2sc[n+](Cc3ccccc3)c2CCC(=O)OCC)sc[n+]1Cc1ccccc1 [T13, dodecamethylenebis[5-(1-benzyl-4-ethoxycarbonylethyl)-thiazolium] dibromide]",IC50,P. falciparum; [5],250 nM
"c1ccc(Cc2csc[n+]2CCCCCCCCCCCC[n+]2cscc2Cc2ccccc2)cc1 [T16, dodecamethylenebis[4-(1-benzyl)-thiazolium] dibromide]",IC50,P. falciparum; [5],10 nM
"CC(=C1CCOC(=O)S1)N(C=O)CCCCCCCCCCCCN(C=O)C(C)=C1CCOC(=O)S1 [TE3, N,N′-diformyl-N,N′-di[1(2-oxo-4,5-dihydro-1,3-oxathian-4-ylidene)ethyl]1,12-diaminododecane]",IC50,P. falciparum; [5],3 nM and 2.6 nM
"COCCC(SC(=O)c1ccccc1)=C(C)N(C=O)CCCCCCCCCCCCN(C=O)C(C)=C(CCOC)SC(=O)c1ccccc1 [TE4c, N,N′-diformyl-N,N′-di[1-methyl-2-S-thiobenzoyl-4-methoxybut-1-enyl]-1,12-diaminododecane]",IC50,P. falciparum; [5],2 nM
same,"Oral absorption index (LD50 po/LD50 ip ratio, acute)",[1],˜10
same,In vivo LD50 (mg/kg) (mouse) acute,[1]; ip,100 mg/kg
same,In vivo LD50 (mg/kg) (mouse) semi-chronic,[1]; [8],≧30^d mg/kg
same,In vivo LD50 (mg/kg) (mouse) acute,[1]; po,˜1000 mg/kg
same,In vivo LD50 (mg/kg) (mouse) semi-chronic,[1]; po,˜300 mg/kg
same,In vivo ED50 (mg/kg) (P. vinckei),P. vinckei; ip,1 mg/kg
same,time of first serum level peak,[2]; [9],in less than two hours
same,time of second serum level peak,[2]; [9],around 15 hours
same,relative bioavailability [AUC (po)/AUC (ip)],[2]; 50 mg/kg po vs 3 mg/kg ip,5%
same,time of second serum level peak,[2]; higher doses 10 mg/kg ip and 150 mg/kg po,around 23 hours
same,AUC,[2]; [10],3300 ng·h/mL
same,C0,[2]; [10],180 ng/mL
same,t1/2,[2]; [10],12 h
same,AUC,[2]; [11],2700 ng·h/mL
same,C0,[2]; [11],130 ng/mL
same,C0,[2]; [12],1000 ng/mL
same,t1/2,[2]; [12],around 10 hours
same,recurrence of parasitemia after treatment,[3]; 6 months following the treatment,no further occurrence was observed in the 6 months following the treatment
same,blood parasitemia after treatment,"[3]; parasitemia 1% or 6% at start, im 2 mg/kg, 2 injections per day, 8 days",completely eliminated
"CCN(CC)Cc1ccc(C(=O)SC(CCOC)=C(C)N(C=O)CCCCCCCCCCCCN(C=O)C(C)=C(CCOC)SC(=O)c2ccc(CN(CC)CC)cc2)cc1 [TE4f, N,N′-diformyl-N,N′-di[1-methyl-2-S-(p-diethylaminomethylphenylcarboxy)-thio-4-methoxybut-1-enyl]-1,12-diaminododecane]",IC50,P. falciparum; [5],2.3 nM
"COCCC(SC(=O)c1ccc(CN2CCOCC2)cc1)=C(C)N(C=O)CCCCCCCCCCCCN(C=O)C(C)=C(CCOC)SC(=O)c1ccc(CN2CCOCC2)cc1 [TE4g, N,N′-diformyl-N,N′-di[1-methyl-2-S-(p-morpholino-methylphenylcarboxy)-thio-4-methoxybut-1-enyl]-1,12-diaminododecane]",IC50,P. falciparum; [5],2.3 nM
"COc1ccc(C(=O)SC(CCOCCCCCCOCCC(SC(=O)c2ccc(OC)cc2)=C(C)N(C=O)Cc2ccccc2)=C(C)N(C=O)Cc2ccccc2)cc1 [TE10, 2,17-(N,N′-diformyl-N,N′-dibenzyl)diamino-3,16-S-thio-p-methoxybenzoyl-6,13-dioxaoctadeca-2,16-diene]",IC50,P. falciparum; [5],12 nM
"CCOC(=O)CC(=C(CCCCCCCCCCCCC(SC(=O)c1ccccc1)=C(CC(=O)OCC)N(C=O)Cc1ccccc1)SC(=O)c1ccccc1)N(C=O)Cc1ccccc1 [TE13, ethyl 3,18-(N,N′-diformyl-N,N′-dibenzyl)diamino-4,17-S-thiobenzoyleicosa-3,17-dienedioate]",IC50,P. falciparum; [5],650 nM
"CCCSSC(CCO)=C(C)N(C=O)CCCCCCCCCCCCN(C=O)C(C)=C(CCO)SSCCC [TS3b, N,N′-diformyl-N,N′-di[1-methyl-2-propyl-dithio-4-hydroxybut-1-enyl]-1,12-diaminododecane]",IC50,"P. falciparum; Plasmodium falciparum, in vitro growth of P. falciparum, [3H]hypoxanthine incorporation, 48 hours test, read-out: IC50",1.3 nM
same,"Oral absorption index (LD50 po/LD50 ip ratio, acute)",[1],6.7
same,LD50 at 4 days,"[1]; ip, infected mice, ip, read-out: In vivo LD50 (mg/kg) semi-chronic in mice infected with malaria",32 mg/kg
same,LD50,[1]; ip,240 mg/kg
same,LD50 at 4 days,[1]; [6],90 mg/kg
same,LD50,[1]; po,1600 mg/kg
same,LD50 at 4 days,[1]; [7],410 mg/kg
same,ED50,P. vinckei; ip,~7 mg/kg
same,ED50,P. vinckei; po,~180 mg/kg
same,time of first serum level peak,[4],in less than two hours
same,IC50,Babesia divergens,< 20 nM
same,IC50,B. canis,< 20 nM
"N,N′-diformyl-N,N′-di[1-methyl-2-S-(p-phthaloyl)-thio-4-methoxybut-1-enyl]-1,12-diaminododecane [TE4j]",IC50,P. falciparum; [5],2.7 nM
"N,N′-dimethyl-N,N′-(5-chloropentyl)-1,16-hexadecane diamine hydrochloride [P1]",IC50,P. falciparum; [5],1.7 nM
